From patent US12042503B2, “Compositions and methods for treating coronavirus infections” (priority 2020, dated 2024)
“And” between values parts separate entries of the source, which are not always exact repeats. Equal entries are not always repeated. Structures can show the parent of a compound that is named as a salt. Where two headings read alike, the source gives them in different places.

What was measured:
IP receptor (PTGIR) = target: T1, IP receptor (PTGIR) (Homo sapiens, UniProt P43119); assay: PathHunter beta-arrestin cell-based prostanoid receptor assay, IP
T1 construct: host or cells: PathHunter beta-arrestin cell line
Method: (§1) DiscoverX cell-based ligand binding assays were performed in the PathHunter beta-arrestin (EP1, EP2, EP3, EP4, FP, IP, and TP receptors) or cAMP Hunter™ (DP receptor) cell lines.
(§2) Receptor binding studies were performed in either the PathHunter® b-Arrestin (EP1, EP2, EP3, EP4, FP, IP, and TP receptors) or cAMP Hunter™ (DP receptor) cell lines. A 10 mM working stock of GP1681 was created in 1×PBS, pH 7.4. All assays were carried out in duplicate with 10 individual concentrations of GP1681. A three-fold dilution series of GP1681 was established for the initial or pilot experiment with a starting concentration of 4 uM (starting concentration was chosen based on previous Gemmus Pharma preclinical experimental results).
(§3) GP1681 was incubated with cells lines at either 37° C. or room temperature, for 90-180 minutes (temperatures and incubation times are all dependent on established optimized procedures for each receptor cell line) after which cell wells were processed and signal production detected. […] Vehicle only controls (PBS, pH 7.4) were also included for each receptor cell line. Receptor binding activity was analyzed using CBIS data analysis suite (ChemInnovation, CA). The percentage of activity was calculated using the following formula: % Activity=100%×(mean RLU of test sample−mean RLU of vehicle control)/(mean MAX control ligand−mean RLU of vehicle control). Dose curves were performed and EC50 values determined.

EP4 receptor (PTGER4) = target: T2, EP4 receptor (PTGER4) (Homo sapiens, UniProt P35408); assay: PathHunter β-Arrestin PTGER4 (EP4) antagonist assay against GP1681 at EC80; type: cell-based; settings: for inhibition of GP1681 activity, in words: standard 10 μM top concentration
T2 construct: expressed in transfected cells; host or cells: PathHunter β-Arrestin PTGER4 (EP4) cell line
Method: This Example describes antagonist assay experiments performed with known EP4 receptor inhibitors. Agonist controls and antagonist binding studies were performed in the PathHunter® β-Arrestin PTGER4 (EP4) cell lines. The PathHunter® β-Arrestin assay monitors activation by bound ligands of a GPCR in a homogenous, non-imaging assay format using Enzyme Fragment Complementation (EFC) with β-galactosidase (β-Gal) as the functional reporter. A fresh 10 mM working stock of GP1681 was created in the vehicle (1×PBS, pH 7.4). Prior to setting up the GP1681-antagonist assays, the parameters of the GP1681 agonist assay were optimized for most efficient cellular activation and expression of the reporter molecule via GP1681 receptor (PTGER4) binding. Two different cell densities (5K vs 7.5K) and incubation temperatures (room temperature and 37 C) were evaluated in standard agonist format. […] Vehicle only controls (1×PBS, pH 7.4) were also included for each receptor cell line. Receptor binding activity was analyzed using CBIS data analysis suite (ChemInnovation Software, Inc., San Diego, CA, USA).
The percentage of activity was calculated using the following formula: % Activity=100%×(mean RLU of test sample−mean RLU of vehicle control)/(mean MAX control ligand−mean RLU of vehicle control). Dose curves were performed and EC50 values determined. In all rows, the assay was Arrestin, the assay target was PTGER4, and the result type was EC50 for all agonists, and IC50 for all antagonists. NI indicates no inhibition, N is number of replicates, K is cell density, and RT is room temperature.
All antagonist assays were carried out in duplicate with 10 individual concentrations of one of six antagonist compounds (commercially available from Cayman Chemical; Ann Arbor, MI, USA). […] For antagonist assays, data was normalized to the maximal and minimal response observed in the presence of EC80 ligand and vehicle. A three-fold dilution series of each compound was established with a parameters). […] Incubation was at 37° C. for 90-180 minutes after which cell wells were processed for signal detection. Microplates were read following signal generation with a PerkinElmer Envision™ instrument (Waltham, MA, USA) for chemiluminescent signal detection. Vehicle only controls (PBS, pH 7.4) were also included for each antagonist run. Receptor binding activity was analyzed using CBIS data analysis suite (ChemInnovation, CA, USA). […] Percentage inhibition was calculated using the following formula: % Inhibition=100%×(1−(mean RLU of test sample−mean RLU of vehicle control)/(mean RLU of EC80 control−mean RLU of vehicle control)). […] This molecule was included as a control molecule for Eurofins work.

TP receptor (TBAX2R) = target: T3, TP receptor (TBAX2R) (Homo sapiens, UniProt P21731); assay: PathHunter beta-arrestin cell-based prostanoid receptor assay, TP; settings: Run 1, GP1681 starting concentration 4 uM; β-Arrestin
T3 construct: host or cells: PathHunter beta-arrestin cell line
T3 sequence (P21731 1-343): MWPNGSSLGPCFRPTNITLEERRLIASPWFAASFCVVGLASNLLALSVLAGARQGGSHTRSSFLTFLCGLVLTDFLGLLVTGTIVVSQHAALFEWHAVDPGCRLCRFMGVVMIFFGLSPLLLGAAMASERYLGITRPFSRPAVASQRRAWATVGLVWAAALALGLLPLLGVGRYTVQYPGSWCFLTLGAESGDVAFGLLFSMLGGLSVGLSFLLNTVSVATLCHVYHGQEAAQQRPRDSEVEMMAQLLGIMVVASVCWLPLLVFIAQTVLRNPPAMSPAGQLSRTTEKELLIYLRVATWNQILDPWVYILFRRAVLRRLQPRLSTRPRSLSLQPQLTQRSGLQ
Method: as §1, §2, §3

DP1 receptor (PTGDR) = target: T4, DP1 receptor (PTGDR) (Homo sapiens, UniProt Q13258); assay: cAMP Hunter cell-based prostanoid receptor assay, DP receptor; settings: HitHunter cAMP cell line
T4 construct: host or cells: cAMP Hunter (DP receptor) cell line
T4 sequence (Q13258 1-359): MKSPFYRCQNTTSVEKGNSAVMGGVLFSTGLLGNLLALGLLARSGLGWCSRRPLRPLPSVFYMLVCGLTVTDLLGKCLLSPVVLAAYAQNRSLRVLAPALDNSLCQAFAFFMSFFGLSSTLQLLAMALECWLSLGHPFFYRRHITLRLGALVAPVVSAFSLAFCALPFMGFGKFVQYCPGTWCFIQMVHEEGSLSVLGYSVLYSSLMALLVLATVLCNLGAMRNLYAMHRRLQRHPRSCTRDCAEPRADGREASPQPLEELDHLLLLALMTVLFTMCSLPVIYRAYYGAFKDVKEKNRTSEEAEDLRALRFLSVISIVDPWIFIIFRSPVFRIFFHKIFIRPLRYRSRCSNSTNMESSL
Method: as §1, §2, §3
(§4) The four assays were repeated with a higher starting concentration.
(§5) The second experimental run of the receptor binding assay was performed with these last four cell lines including GP1681 and their respective positive and negative (vehicle, PBS pH 7.4) controls. A 10 mM GP1681 working stock was again created in 1×PBS, pH 7.4. A three-fold serial dilution scheme was again used for GP1681 samples, starting this time at a concentration of 500 μM. The remainder of the second experimental run was performed in the same manner as run 1.

EP1 receptor (PTGER1) = target: T5, EP1 receptor (PTGER1) (Homo sapiens, UniProt P34995); assay: PathHunter beta-arrestin cell-based prostanoid receptor assay, EP1; settings: β-Arrestin
T5 construct: host or cells: PathHunter beta-arrestin cell line
T5 sequence (P34995 1-402): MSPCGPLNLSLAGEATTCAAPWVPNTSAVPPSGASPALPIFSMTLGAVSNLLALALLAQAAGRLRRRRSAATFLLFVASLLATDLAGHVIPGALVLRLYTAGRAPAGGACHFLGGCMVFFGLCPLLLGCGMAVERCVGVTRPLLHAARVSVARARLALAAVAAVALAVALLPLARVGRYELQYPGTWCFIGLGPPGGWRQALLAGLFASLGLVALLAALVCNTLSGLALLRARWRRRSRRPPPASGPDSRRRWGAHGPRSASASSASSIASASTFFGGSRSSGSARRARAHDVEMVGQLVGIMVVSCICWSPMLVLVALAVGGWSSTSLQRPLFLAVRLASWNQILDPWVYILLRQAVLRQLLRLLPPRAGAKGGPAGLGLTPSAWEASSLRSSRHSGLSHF
Method: as §1, §2, §3, §4, §5

[1] = 5K 37C, challenge with GP1681 at EC80 (45 μM), read-out: RC50 (μM) / IC50, antagonist
[2] = 5K 37C, GP1681 at EC80, read-out: IC50 for competitive inhibition of GP1681
[3] = Run 1, GP1681 starting concentration 4 uM, curve for GP1681 not fully sigmoidal
[4] = Run 2, GP1681 starting concentration 500 μM

T2 sequence (P35408 whole entry): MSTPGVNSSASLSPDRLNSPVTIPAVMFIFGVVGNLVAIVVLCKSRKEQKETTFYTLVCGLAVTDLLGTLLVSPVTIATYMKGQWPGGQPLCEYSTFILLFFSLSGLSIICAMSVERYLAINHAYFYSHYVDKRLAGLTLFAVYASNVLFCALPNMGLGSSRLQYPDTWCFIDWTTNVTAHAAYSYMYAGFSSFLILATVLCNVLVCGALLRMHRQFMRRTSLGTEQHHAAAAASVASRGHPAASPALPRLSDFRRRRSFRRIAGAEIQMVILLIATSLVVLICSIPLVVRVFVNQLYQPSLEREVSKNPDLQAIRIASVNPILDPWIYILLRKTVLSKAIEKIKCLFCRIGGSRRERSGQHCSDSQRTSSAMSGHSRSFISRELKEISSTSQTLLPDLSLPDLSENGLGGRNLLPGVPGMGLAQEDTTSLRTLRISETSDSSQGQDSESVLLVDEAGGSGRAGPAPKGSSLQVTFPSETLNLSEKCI
T1 sequence (P43119 whole entry): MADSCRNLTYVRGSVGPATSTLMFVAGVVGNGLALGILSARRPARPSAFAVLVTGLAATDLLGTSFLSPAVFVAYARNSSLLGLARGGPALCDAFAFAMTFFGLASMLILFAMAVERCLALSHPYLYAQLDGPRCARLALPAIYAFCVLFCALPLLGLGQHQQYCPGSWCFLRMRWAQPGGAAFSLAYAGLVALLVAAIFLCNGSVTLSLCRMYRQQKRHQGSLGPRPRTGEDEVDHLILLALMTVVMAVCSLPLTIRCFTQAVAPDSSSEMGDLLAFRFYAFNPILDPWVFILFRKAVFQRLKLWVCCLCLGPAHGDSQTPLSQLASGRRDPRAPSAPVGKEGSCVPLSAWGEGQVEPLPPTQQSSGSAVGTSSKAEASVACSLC

## CC#CCC(C)C(O)C=CC1C(O)CC2Oc3c(CCCC(=O)O)cccc3C21 (racemic) [Beraprost, 2,3,3a,8b-tetrahydro-2-hydroxyl-1-(3-hydroxyl-4-methyl-1-octen-6-ynyl)-1H-cyclopenta[b]benzofuran-5-butanoic acid, sodium salt]
IP receptor (PTGIR)
  EC50: 436 nM
IP receptor (PTGIR); ratio of EC50 values
  fold lower affinity as compared to GP1681 for the IP receptor: about 4 fold

## O=C(O)CC/C=C\CC[C@H]1[C@H](N2CCOCC2)C(=O)C[C@H]1OCc1ccc(-c2ccccc2)cc1 [AH 23848 (Ca salt)]
EP4 receptor (PTGER4); [1]
  IC50: > 10 µM
EP4 receptor (PTGER4); GP1681 at EC80
  inhibition of GP1681 activity, in words: did not inhibit GP1681

## CCCCCC(O)CCC1CCC(=O)N1CCCCCCC(=O)O (stereo not drawn) [CAY10580]
EP4 receptor (PTGER4); [1]
  IC50: > 10 µM
EP4 receptor (PTGER4); only at 3 and 10 μM concentrations
  complementary activity in antagonist assay, in words: low level of complementary activity
EP4 receptor (PTGER4); GP1681 at EC80
  inhibition of GP1681 activity, in words: did not inhibit activity of GP1681

## CCc1nc2c(C)nc(C)cc2n1-c1ccc(CCNC(=O)NS(=O)(=O)c2ccc(C)cc2)cc1 [CJ-023423]
EP4 receptor (PTGER4); IC50 for competitive inhibition of GP1681, 5K 37C, GP1681 at EC80
  IC50: 0.0265 µM
EP4 receptor (PTGER4); RC50 (μM) / IC50, antagonist, 5K 37C, challenge with GP1681 at EC80 (45 μM)
  IC50: 0.0265 µM and 0.0266 µM

## CCOc1c2c(c(OCC)c3ccccc13)C(=O)N(c1ccc(CC(=O)NS(=O)(=O)c3ccccc3)cc1)C2 [GW 627368X]
EP4 receptor (PTGER4); [2]
  IC50: 0.0442 µM
EP4 receptor (PTGER4); [1]
  IC50: 0.0442 µM

## O=C(O)CCC/C=C\C[C@@H]1[C@@H](/C=C/[C@@H](O)COc2ccc(I)cc2)[C@H]2CC[C@@H]1O2 [I-BOP, reference compound]
TP receptor (TBAX2R)
  EC50: 32 nM

## CCCCc1nn(-c2ccccc2C(F)(F)F)c(=O)n1Cc1ccc(-c2ccccc2S(=O)(=O)NC(=O)c2sccc2C)cc1 [L-161,982]
EP4 receptor (PTGER4); [2]
  IC50: 0.0339 µM
EP4 receptor (PTGER4); [1]
  IC50: 0.0339 µM

## CCCCC[C@H](O)/C=C/[C@H]1C(=O)C[C@H](O)[C@@H]1C/C=C\CCCC(=O)O [PDG2, PGD2, reference compound]
DP1 receptor (PTGDR); [3]
  EC50: 2.2 nM
DP1 receptor (PTGDR); [4]
  EC50: 1.2 nM

## CCCCC[C@H](O)/C=C/[C@H]1[C@H](O)CC(=O)[C@@H]1C/C=C\CCCC(=O)O [PGE2, Prostaglandin E2, reference compound]
EP1 receptor (PTGER1); [3]
  EC50: 4.9 nM
EP1 receptor (PTGER1); [4]
  EC50: 6.3 nM
